Data set [1] can be described thus: In vivo pharmacokinetics in mice. The following applies: for clearance / bioavailability: male, CD1, mouse, plasma; for clearance: intravenous, 1 mg/kg; for bioavailability: oral, 5 mg/kg.
Method: (§3) Dosing solutions were prepared at 0.5 mg/mL in 10% DMSO/10% HP—3-CD/80% water. A dosing solution was administered to Male CD1 mice (4-6 weeks, 20-30 g, 3 mice each group) via intravenous (TV) bolus at 1 mg/kg and by oral gavage (PO) at 5 mg/kg. The dose formulations were kept at room temperature and administrated within 30 mins for IV/PO. Blood samples (0.3 mL each time point) were collected into tubes containing ethylenediaminetetraacetic acid (K2EDTA) as the anticoagulant at 0, 0033, 0.083, 0.25, 05, 1, 2, 4, 8 and 24 hours post dose for IV administrated and 0, 0.083, 0.25, 0.5, 1, 2, 4, 8 and 24 hours post dose for PO administration. The blood sample were then centrifuged for 5 minutes in centrifuge refrigerated at 4° C. The samples were stored in a freezer at −75±15° C. prior to analysis. Concentrations of Compound in the plasma samples were analyzed using a LC-MS/MS method. WinNonlin (Phoenix™, version 8.3) or other similar software were used for pharmacokinetic calculations. The following pharmacokinetic parameters were calculated, whenever possible from the plasma concentration versus time data: MRT, Cmax, Tmax, AUClast, AUCinf, F %, Number of Points for Regression.
Data set [2] deals with PI3Kα wide type cell line SK-BR-3. Briefly: Cell Proliferation IC50 Assay (CellTiter-Glo), SK-BR-3. Conditions: SK-BR-3 (PI3Kα wild type), 72 hours, CellTiter-Glo, read-out: IC50 (μM) SK-BR-3. The data set is classed as cell-based. An outline of the steps: (§1)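 Cells were seeded and left overnight, then exposed to serially diluted compound (200-fold final dilution) for 72 h at 37 °C, 5% CO2. Viability was read by CellTiter-Glo luminescence. Percent inhibition and IC50 were calculated from the signal.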
On the technique in general: In ATP-based viability assays light output follows the ATP content of the culture.

Data set [3] relates to PI3Kα H1047R mutation cell line T-47D. Description: Cell Proliferation IC50 Assay (CellTiter-Glo), T-47D. The following applies: T47D (H1047R), 72 hours, CellTiter-Glo, read-out: IC50 (μM) T47D. The data set is classed as cell-based. An outline of the steps:
as §1

For data set [4], the system named is PI3Kα H1047R mutation cell line MDA-MB-453. Briefly: Cell Proliferation IC50 Assay (CellTiter-Glo), MDA-MB-453. The format is cell-based. The following applies: Homo sapiens; MDA-MB-453 (H1047R), 72 hours, CellTiter-Glo; read-out: IC50 (μM) MDA-MB-453. An outline of the steps:
as §1

Data set [5] deals with PI3Kα H1047R mutant (Homo sapiens, UniProt P42336, H1047R). Briefly: pAKT (S473) ELISA assay in PI3Kα H1047R mutant cell line (T47D). The data set is classed as cell-based. The following applies: T47D cells, two hours compound, IGF-1 50 ng/ml stimulation. As for the experimental part:
(§2) Cells were serum starved for 4 hours prior to compound treatment; compound solution was added to each well (3-fold serial dilution starting at desired concentration) for two hours in serum-free medium, followed by stimulation with IGF-1 for 60 minutes at a final concentration of 50 ng/ml as noted. After compound treatment and stimulation, discarded the supernatant and cells were lysed by cell lysis buffer (Cell Signaling Technology, #9803S). The lysate was transferred to the ELISA plate, the Phospho-AKT (Ser473) ELISA was performed as the manufacturer's directions (Cell Signaling Technology, #7160CA).
In general terms: ELISA stands for enzyme-linked immunosorbent assay.

Data set [6] addresses PI3Kα WT (Homo sapiens, UniProt P42336). Briefly: pAKT (S473) ELISA assay in WT cell line (SK-BR-3). The data set is classed as cell-based. Conditions: SK-BR-3 cells, two hours compound, IGF-1 50 ng/ml stimulation. As for the experimental part: as §2
Data set [7] addresses T1, PI3Kβ (Homo sapiens, UniProt P42338).
T1 construct: endogenous in cells; host or cells: 786-O
Briefly: Selectivity study, p-AKT (Ser473) HTRF assay in 786-O cells. Conditions: 786-O cell, 1 hour incubation, serum-free medium. The format is cell-based. The procedure:
The following day, the complete medium was replaced with serum-free medium, 3-fold serial diluted compound solution in serum-free medium was added to each well according to the plate map. After 1 hour incubation, removed cell supernatant carefully and added supplemented lysis buffer (1×) for 45 min. The lysate was transferred to a 384-well small volume white plate, the CisBio Phospho-AKT (Ser473) HTRF assay was performed as the manufacturer's directions (Cisbio, #64AKSPEG).
(In general: In TR-FRET formats the signal depends on donor and acceptor labels being close together.)

The nature of data set [8]: in vivo. Conditions: male, CD1, mouse.
Method: as §3
Where [9] appears, read: CD1 mice, IV bolus at 1 mg/kg and PO at 5 mg/kg.

pIC50: −log10 of the molar value. Like-named read-outs stand apart in the source and are kept apart here.

PI3Kα WT, sequence (P42336 whole entry): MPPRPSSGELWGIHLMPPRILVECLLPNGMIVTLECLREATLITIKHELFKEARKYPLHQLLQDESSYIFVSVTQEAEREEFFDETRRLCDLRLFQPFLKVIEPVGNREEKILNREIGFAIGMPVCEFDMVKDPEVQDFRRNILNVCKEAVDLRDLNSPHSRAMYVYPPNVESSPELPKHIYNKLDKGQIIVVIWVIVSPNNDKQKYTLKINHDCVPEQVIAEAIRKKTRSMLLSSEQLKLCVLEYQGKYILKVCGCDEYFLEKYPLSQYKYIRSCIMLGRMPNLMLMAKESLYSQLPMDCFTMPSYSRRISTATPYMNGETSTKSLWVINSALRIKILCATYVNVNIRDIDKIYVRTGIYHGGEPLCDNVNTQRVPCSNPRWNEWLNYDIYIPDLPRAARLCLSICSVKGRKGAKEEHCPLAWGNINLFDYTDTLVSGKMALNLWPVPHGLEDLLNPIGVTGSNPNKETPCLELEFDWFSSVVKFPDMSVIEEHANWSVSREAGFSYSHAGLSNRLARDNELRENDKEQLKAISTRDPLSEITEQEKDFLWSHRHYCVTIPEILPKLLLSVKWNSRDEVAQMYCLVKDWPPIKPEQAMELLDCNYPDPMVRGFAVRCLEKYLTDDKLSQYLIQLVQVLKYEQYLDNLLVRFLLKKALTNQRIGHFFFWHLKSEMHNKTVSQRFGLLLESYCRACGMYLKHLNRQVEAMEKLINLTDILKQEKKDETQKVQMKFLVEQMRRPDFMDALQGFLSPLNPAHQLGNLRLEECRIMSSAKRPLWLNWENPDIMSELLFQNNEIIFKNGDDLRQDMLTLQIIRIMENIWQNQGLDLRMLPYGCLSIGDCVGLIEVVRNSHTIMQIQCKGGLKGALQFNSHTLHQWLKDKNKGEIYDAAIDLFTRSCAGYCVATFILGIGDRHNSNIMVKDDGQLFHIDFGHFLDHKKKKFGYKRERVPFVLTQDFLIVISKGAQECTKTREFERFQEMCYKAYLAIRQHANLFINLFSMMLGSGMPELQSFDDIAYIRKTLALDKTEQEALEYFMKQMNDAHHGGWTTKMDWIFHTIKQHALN
PI3Kα WT, sequence (P27986 whole entry partner): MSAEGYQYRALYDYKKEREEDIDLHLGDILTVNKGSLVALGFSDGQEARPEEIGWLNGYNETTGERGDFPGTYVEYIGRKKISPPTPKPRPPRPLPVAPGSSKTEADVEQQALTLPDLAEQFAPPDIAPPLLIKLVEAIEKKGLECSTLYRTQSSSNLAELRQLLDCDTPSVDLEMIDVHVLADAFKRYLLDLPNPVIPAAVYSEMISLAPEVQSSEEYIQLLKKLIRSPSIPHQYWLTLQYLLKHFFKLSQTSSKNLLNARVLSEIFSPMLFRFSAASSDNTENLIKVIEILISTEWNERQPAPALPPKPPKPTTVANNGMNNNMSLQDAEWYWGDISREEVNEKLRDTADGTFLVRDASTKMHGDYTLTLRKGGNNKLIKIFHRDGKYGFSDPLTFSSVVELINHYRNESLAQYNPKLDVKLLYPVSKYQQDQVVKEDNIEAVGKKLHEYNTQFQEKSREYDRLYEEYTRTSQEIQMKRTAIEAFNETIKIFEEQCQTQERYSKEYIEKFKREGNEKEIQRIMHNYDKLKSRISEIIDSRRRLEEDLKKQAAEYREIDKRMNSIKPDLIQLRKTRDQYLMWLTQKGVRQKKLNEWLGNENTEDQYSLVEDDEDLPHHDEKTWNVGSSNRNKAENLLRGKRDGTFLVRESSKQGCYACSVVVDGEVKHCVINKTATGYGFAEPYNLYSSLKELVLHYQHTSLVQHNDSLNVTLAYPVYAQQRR
PI3Kα H1047R mutant, sequence (P42336 whole entry H1047R): as the sequence (P42336 whole entry) above, with H1047R counted along it
PI3Kα H1047R mutant, sequence (P27986 whole entry partner): as the sequence (P27986 whole entry partner) above
T1 sequence (P42338 whole entry): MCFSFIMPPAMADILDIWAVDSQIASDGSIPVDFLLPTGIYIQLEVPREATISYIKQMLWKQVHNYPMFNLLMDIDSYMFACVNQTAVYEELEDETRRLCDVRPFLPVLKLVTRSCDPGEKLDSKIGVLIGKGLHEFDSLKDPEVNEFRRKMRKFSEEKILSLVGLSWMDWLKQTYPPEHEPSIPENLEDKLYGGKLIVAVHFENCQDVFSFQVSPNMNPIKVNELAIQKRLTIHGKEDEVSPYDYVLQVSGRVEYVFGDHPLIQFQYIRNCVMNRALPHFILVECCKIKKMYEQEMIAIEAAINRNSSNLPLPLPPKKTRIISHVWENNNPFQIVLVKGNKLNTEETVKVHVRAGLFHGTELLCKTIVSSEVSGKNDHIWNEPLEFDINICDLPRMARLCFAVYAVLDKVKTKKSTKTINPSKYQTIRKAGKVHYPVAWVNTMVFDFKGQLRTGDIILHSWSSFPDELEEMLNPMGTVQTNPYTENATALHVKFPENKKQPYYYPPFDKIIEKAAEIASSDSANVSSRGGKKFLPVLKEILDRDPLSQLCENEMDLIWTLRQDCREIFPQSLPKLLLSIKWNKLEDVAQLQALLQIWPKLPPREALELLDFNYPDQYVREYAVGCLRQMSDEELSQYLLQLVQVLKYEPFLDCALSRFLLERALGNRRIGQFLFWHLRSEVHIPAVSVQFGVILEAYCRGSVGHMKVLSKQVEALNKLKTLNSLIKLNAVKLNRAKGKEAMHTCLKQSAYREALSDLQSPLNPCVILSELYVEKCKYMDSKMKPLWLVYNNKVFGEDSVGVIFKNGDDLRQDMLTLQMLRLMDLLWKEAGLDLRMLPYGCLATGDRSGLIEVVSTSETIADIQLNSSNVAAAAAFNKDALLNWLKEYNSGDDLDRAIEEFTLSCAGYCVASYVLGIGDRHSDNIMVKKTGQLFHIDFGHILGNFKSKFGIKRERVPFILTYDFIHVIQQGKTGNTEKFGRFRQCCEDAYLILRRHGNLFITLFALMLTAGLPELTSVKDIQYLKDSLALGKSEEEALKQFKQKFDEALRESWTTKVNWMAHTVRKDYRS
T1 sequence (P27986 whole entry partner): as the sequence (P27986 whole entry partner) above

Take `Cc1cc([C@@H](C)Nc2ccccc2C(=O)O)c2oc(-c3ccc4nn(C)cc4c3)cc(=O)c2c1` (single isomer, unassigned) [Example 38B]: in data set [1], the clearance – broadly, a measure of how efficiently the substance is removed, as volume per time – is 34 mL/min/kg. For the same compound, the bioavailability (commonly the share of a dose that reaches the circulation, judged against a reference dose that is usually intravenous) in data set [1] was determined as 45.5%. Also, the IC50 (in general, the point on the concentration scale where inhibition reaches its midpoint) in data set [2] (Homo sapiens) stood at 8.5 µM; in data set [3] (Homo sapiens, T47D, 72 h), 0.04 µM; in data set [4], 0.05 µM; in data set [5] it was 25 nM; in data set [6] it was 1290 nM. For the same compound, the pIC50 (commonly −log10 of the IC50, conventionally taken in molar units) in data set [7] is 6.26.
With `CC(=O)N1CCN(c2ccc(-c3oc4c([C@@H](C)Nc5ccccc5C(=O)O)cc(C)cc4c(=O)c3C)cc2)CC1` (single isomer, unassigned) [Example 123A], the IC50 worked out at 5.6 µM in data set [2] (Homo sapiens); 0.076 µM in data set [3] (Homo sapiens, T47D, 72 h); 0.15 µM in data set [4]; 37 nM in data set [5]; 1100 nM in data set [6]. Also, the pIC50 in data set [7] was 5.19.
With `Cc1cc([C@@H](C)Nc2ccccc2C(=O)O)c2oc(-c3ccc(OCCN(C)C)cc3)c(C)c(=O)c2c1` [Example 140, (R)-2-((1-(2-(4-(2-(dimethylamino)ethoxy)phenyl)-3,6-dimethyl-4-oxo-41-chromen-8-yl)ethyl)amino)benzoic acid], the IC50 was over 10 µM in data set [2] (Homo sapiens); 0.041 µM in data set [3] (Homo sapiens, T47D, 72 h); 0.029 µM in data set [4]; 42.3 nM in data set [5]; 2390 nM in data set [6]. The same compound gave a pIC50 in data set [7] of under 5.00.
In the case of `Cc1cc([C@@H](C)Nc2ccccc2C(=O)O)c2oc(-c3ccc(CN4CCN(C)CC4)cc3)c(C)c(=O)c2c1` [Example 147, 2-[[(1R)-1-[3,6-dimethyl-2-[4-[(4-methylpiperazin-1-yl)methyl]phenyl]-4-oxo-chromen-8-yl]ethyl]amino]benzoic acid], the IC50 was over 10 µM in data set [2] (Homo sapiens), 0.055 µM in data set [3] (Homo sapiens), 46.5 nM in data set [5] and 6130 nM in data set [6]. The compound also had a bioavailability in data set [8] of 46.5%. The compound also registered a clearance in data set [8] of 10.9 mL/min/kg. The compound also gave a pIC50 in data set [7] of under 5.00.
`Cc1cc([C@@H](C)Nc2ccccc2C(=O)O)c2oc(-c3ccc(-c4cnn(C)c4)nc3)c(C)c(=O)c2c1` [Example 150, (R)-2-((1-(3,6-dimethyl-2-(6-(1-methyl-H-pyrazol-4-yl)pyridin-3-yl)-4-oxo-41-chromen-8-yl)ethyl)amino)benzoic acid] returned a clearance in data set [1] of 3.75 mL/min/kg. In data set [1], this compound displayed a bioavailability of 58.2%. Besides, the IC50 was over 10 µM in data set [2] (Homo sapiens); 0.064 µM in data set [3] (Homo sapiens, T47D, 72 h); 0.13 µM in data set [4]; 25 nM in data set [5]; 2370 nM in data set [6]. Also, the pIC50 in data set [7] was under 5.00.
Take “(R)-2-((1-(6-methyl-2-(41-methyl-1H-pyrazol-4-yl)phenyl)-4-oxo-4H-chromen-8-yl)ethyl)amino)benzoic acid [Example 95A]”: the Cmax (usually the peak of the concentration-time curve) in data set [1] (setting [9]) is on record as 102 ng/mL. In data set [1] (setting [9]), the MRT (in general, the average time that molecules of a dose stay in the body) worked out at 7.64 h. Also, the IC50 in data set [2] is over 10 µM; in data set [3], 0.09 µM; in data set [5] it was 12 nM; in data set [6] it was 1260 nM.

These data come from US20250136568A1, “FUSED HETEROCYCLIC COMPOUNDS AS PI3KALPHA INHIBITORS” (Nanjing Zenshine Pharmaceuticals Co., Ltd., priority 2021, published 2025).
